Patent US8791132B2, “Compounds and methods for treatment of hypertension” (Medivation Technologies, Inc., priority 2011, dated 2014)
pKi: −log10 of the molar value. Where “and” joins values, the source holds several entries; their conditions need not be identical. Equal values may be shown once. Read-outs that look alike come from different tables or passages of the source.

Tests used:
[1] = target: T1, human recombinant adrenergic α2A receptor (Homo sapiens, UniProt P08913); experiment: Radioligand binding, adrenergic α2A ([3H]MK-912); details: for Percentage inhibition of ligand binding, Adrenergic α2A / Percentage inhibition of ligand binding, Adrenergic α2A (0.1 μM): compound at 0.1 μM, 0.1 µM; for Percentage inhibition of ligand binding, Adrenergic α2A: repeat assays, each datapoint shown
T1 construct: expressed in transfected cells; host or cells: insect Sf9 cells
T1 sequence (P08913 1-465): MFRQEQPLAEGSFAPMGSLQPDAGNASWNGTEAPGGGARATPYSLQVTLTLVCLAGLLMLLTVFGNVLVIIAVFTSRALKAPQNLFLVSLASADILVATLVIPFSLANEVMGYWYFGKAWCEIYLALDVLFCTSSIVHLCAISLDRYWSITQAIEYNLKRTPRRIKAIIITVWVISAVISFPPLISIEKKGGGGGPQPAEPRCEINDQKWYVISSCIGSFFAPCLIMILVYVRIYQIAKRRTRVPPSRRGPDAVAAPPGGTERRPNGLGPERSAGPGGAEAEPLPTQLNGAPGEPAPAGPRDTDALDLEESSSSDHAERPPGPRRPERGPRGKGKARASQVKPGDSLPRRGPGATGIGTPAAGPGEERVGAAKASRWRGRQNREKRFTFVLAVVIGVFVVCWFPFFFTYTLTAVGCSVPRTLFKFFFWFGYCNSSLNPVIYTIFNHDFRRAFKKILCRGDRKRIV
Outline: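 Receptor expressed in Sf9 cells, in 50 mM Tris-HCl pH 7.4, 12.5 mM MgCl2, 2 mM EDTA; compounds incubated with 1 nM [3H]MK-912 for 60 min at 25 °C.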

[2] = target: T2, human recombinant adrenergic α2B receptor (Homo sapiens, UniProt P18089); experiment: Radioligand binding, adrenergic α2B ([3H]Rauwolscine); details: for Percentage inhibition of ligand binding, Adrenergic α2B / Percentage inhibition of ligand binding, Adrenergic α2B (0.03 μM): 0.03 µM
T2 construct: expressed in transfected cells; host or cells: CHO-K1
T2 sequence (P18089 1-450): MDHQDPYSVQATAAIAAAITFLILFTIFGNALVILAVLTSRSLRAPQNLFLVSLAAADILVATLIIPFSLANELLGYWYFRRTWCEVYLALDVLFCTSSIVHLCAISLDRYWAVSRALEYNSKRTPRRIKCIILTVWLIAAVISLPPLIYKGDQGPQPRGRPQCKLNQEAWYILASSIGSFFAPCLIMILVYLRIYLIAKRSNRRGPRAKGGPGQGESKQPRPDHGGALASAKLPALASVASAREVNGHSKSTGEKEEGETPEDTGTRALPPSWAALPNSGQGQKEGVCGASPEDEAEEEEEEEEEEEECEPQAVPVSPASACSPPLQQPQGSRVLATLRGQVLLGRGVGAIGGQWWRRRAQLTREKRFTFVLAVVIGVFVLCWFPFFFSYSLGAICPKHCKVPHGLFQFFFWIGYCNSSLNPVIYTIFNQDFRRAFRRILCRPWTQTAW
Outline: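 Membranes from CHO-K1 cells expressing human recombinant α2B, in 50 mM Tris-HCl pH 7.4, 12.5 mM MgCl2, 1 mM EDTA, 0.2% BSA, incubated with compound and 2.5 nM [3H]Rauwolscine, 60 min, 25 °C.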

[3] = target: T3, rat adrenergic α1B receptor (Rattus norvegicus, UniProt P15823); experiment: Radioligand binding, adrenergic α1B ([3H]Prazosin); details: for Percentage inhibition of ligand binding, Adrenergic α1B / Percentage inhibition of ligand binding, Adrenergic α1B (0.1 μM): 0.1 µM
T3 construct: rat adrenergic α1B receptor obtained from Wistar Rat liver; from tissue; host or cells: Wistar rat liver
T3 sequence (P15823 1-515): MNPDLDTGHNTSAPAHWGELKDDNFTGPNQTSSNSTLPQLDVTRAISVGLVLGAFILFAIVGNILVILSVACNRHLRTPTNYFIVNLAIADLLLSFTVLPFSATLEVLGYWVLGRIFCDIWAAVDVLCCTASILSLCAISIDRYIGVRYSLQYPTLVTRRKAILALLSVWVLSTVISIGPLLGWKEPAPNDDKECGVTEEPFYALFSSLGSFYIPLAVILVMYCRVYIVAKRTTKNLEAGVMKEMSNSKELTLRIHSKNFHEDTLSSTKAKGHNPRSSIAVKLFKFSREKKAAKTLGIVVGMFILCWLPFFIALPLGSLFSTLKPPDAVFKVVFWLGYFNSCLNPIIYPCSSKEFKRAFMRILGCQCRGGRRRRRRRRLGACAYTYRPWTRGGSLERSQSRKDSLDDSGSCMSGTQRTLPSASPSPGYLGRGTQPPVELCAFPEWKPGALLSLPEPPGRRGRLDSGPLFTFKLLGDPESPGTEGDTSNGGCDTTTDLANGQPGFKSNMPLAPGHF
Description: To evaluate in radioligand binding assays the activity of compounds of the invention, rat adrenergic α1B receptor obtained from Wistar Rat liver (Garcia-S'ainz, J. et al, Biochem. Biophys. Res. Commun. 186:760, 1992; Michel, A. et al, Br. J. Pharmacol. 98:883, 1989) in a modified Tris-HCl buffer (50 mM Tris-HCl buffer, pH 7.4, 0.5 mM EDTA) was used. Compounds of the invention were incubated with 0.25 nM [^3H]Prazosin for 60 min at 25° C. Non-specific binding was estimated in the presence of 10 μM phentolamine. Receptor proteins were filtered and washed, the filters were then counted to determine [^3H]Prazosin specifically bound. […] Compounds of the invention were tested in this biochemical assay and percent inhibition of specific binding was determined. Biochemical assay results are presented as the percent inhibition of specific binding in Table B1.

[4] = compound at 0.03 μM, [3H]Rauwolscine, repeat assays, each datapoint shown
[5] = compound at 0.1 μM, [3H]Prazosin, repeat assays, each datapoint shown
[6] = [3H]MK-912, repeat datapoints each shown
[7] = compound at 0.03 μM, [3H]Rauwolscine, repeat datapoints each shown
[8] = compound at 0.1 μM, [3H]Prazosin, repeat datapoints each shown
[9] = compound at 0.1 μM, [3H]Prazosin, repeat assays, each datapoint shown, read-out: Percentage inhibition of ligand binding, Adrenergic α1B

Row | Compound | Percentage inhibition of ligand binding, Adrenergic α2A ([1]; [3H]MK-912) [%] | Percentage inhibition of ligand binding, Adrenergic α2B [2, 4] [%] | Percentage inhibition of ligand binding, Adrenergic α1B [3, 5] [%] | Percentage inhibition of ligand binding, Adrenergic α2A (0.1 μM) [1, 6] [%] | Percentage inhibition of ligand binding, Adrenergic α2B (0.03 μM) [2, 7] | Percentage inhibition of ligand binding, Adrenergic α1B (0.1 μM) [3, 8] | also measured
1 | Cc1ccc2c(c1)c1c(n2CC(O)c2ccncc2)CC2CCCN2C1 (single isomer, unassigned) [76b] | 18 | 34 | 71 |  |  |  | 
2 | Cc1ccc2c(c1)c1c(n2CC(O)c2ccc(C)nc2)CCN2CCCC12 (single isomer, unassigned) [198a, 2-(9-methyl-1,2,3,4,5,10c-hexahydro-3a,6-diaza-cyclopenta[c]fluoren-6-yl)-1-(6-methyl-pyridin-3-yl)-ethanol] |  |  |  | 10 | 47% | 24% | 
3 | CCN1CCc2c(c3cc(C)ccc3n2CC(O)c2ccc(C)cc2)C1 (single isomer, unassigned) [203b] |  |  |  | 31 | 24% | 47% | 
4 | Cc1ccc2c(c1)c1c(n2CC(O)c2cccnc2)CN(C)CC1 (stereo not drawn) [compound 43, 2-(2,6-dimethyl-1,2,3,4-tetrahydro-β-carbolin-9-yl)-1-pyridin-3-yl-ethanol] | −1 | 24 | 21 |  |  |  | 
5 | CNC(Cn1c2c(c3cc(C)ccc31)CN(C)CC2)c1ccncc1 (single isomer, unassigned) [151b, 2-(1,2,3,4-tetrahydro-2,8-dimethylpyrido[4,3-b]indol-5-yl)-N-methyl-1-(pyridin-4-yl)ethanamine] |  |  |  | 8 | 37% | 9% | 
6 | CC(O)(Cn1c2c(c3cc(Cl)cnc31)C1CCCN1CC2)c1cccnc1 (single isomer, unassigned) [IV-210a] |  |  |  | 37 | 101% and 103% | 70% and 75% | pKi ([2]; read-out: Ki α2B): 9.48; inhibition at 0.03 µM ([3]; read-out: Percentage inhibition of ligand binding, Adrenergic α1B (0.03 μM), compound at 0.03 μM, [3H]Prazosin, repeat datapoints each shown): 43%
7 | Cc1cnc2c(c1)c1c(n2CC(O)c2ccncc2)CCN2CCCC12 (single isomer, unassigned) [IV-209b, 2-(9-Methyl-1,2,3,4,5,10c-hexahydro-3a,6,7-triaza-cyclopenta[c]fluoren-6-yl)-1-pyridin-4-yl-ethanol] |  |  |  | 10 | 13% | 11% | 
8 | Cc1ccc2c(c1)c1c(n2CC(O)c2ccncc2)CCN(CCCO)C1 (centres unmarked) [II-75, 3-(3,4-dihydro-5-(2-hydroxy-2-(pyridin-4-yl)ethyl)-8-methyl-1H-pyrido[4,3-b]indol-2(5H)-yl)propan-1-ol] |  |  |  |  |  |  | inhibition at 0.1 µM ([1]; 0.1 μM compound, read-out: Percentage inhibition of ligand binding, Adrenergic α2A): 15%; inhibition at 0.03 µM ([2]; 0.03 μM compound, read-out: Percentage inhibition of ligand binding, Adrenergic α2B): 35%; inhibition at 0.1 µM ([3]; 0.1 μM compound, read-out: Percentage inhibition of ligand binding, Adrenergic α1B): 8%
9 | Cc1ccc2c(c1)c1c(n2CC(O)c2ccncc2)CCN2CCCCC12 (single isomer, unassigned) [47c] | 4 | 53 | 6 |  |  |  | 
10 | CN1Cc2c(n(CC(O)c3ccncc3)c3ncccc23)C(C)(C)C1 (centres unmarked) [compound 17, 1-pyridin-4-yl-2-(6,8,8-trimethyl-5,6,7,8-tetrahydro-1,6,9-triaza-fluoren-9-yl)-ethanol] | 19 |  |  |  |  |  | inhibition at 0.03 µM ([2]; compound at 0.03 μM, [3H]Rauwolscine, repeat assays, each datapoint shown, read-out: Percentage inhibition of ligand binding, Adrenergic α2B): 37%; inhibition at 0.1 µM [3, 9]: 18%
11 | CN1CCc2c(c3cccc(Cl)c3n2CC(C)(O)c2cccnc2)C1 (single isomer, unassigned) [57b, 1-(6-chloro-2-methyl-1,2,3,4-tetrahydro-pyrido[4,3-b]indol-5-yl)-2-pyridin-3-yl-propan-2-ol] | 24 | 84 | 9 |  |  |  | 
12 | Cc1ccc2c(c1)c1c(n2CC(C)(O)c2ccc[n+]([O-])c2)CCN(C)C1 (single isomer, unassigned) [56b] | 17 | 28 | 6 |  |  |  | 
13 | COc1cccc2c3c(n(CC(O)c4ccncc4)c12)CCN(C)C3 (centres unmarked) [compound 44, 2-(6-methoxy-2-methyl-3,4-dihydro-1H-pyrido[4,3-b]indol-5(2H)-yl)-1-(pyridin-4-yl)ethanol] | −1 | 56 | −3 |  |  |  | 
14 | Cc1ccc(CCn2c3c(c4c(Cl)ccc(Cl)c42)CCN(C)C3)cn1 [II-249, 5,8-dichloro-2,3,4,9-tetrahydro-2-methyl-9-(2-(6-methylpyridin-3-yl)ethyl)-1H-pyrido[3,4-b]indole] |  |  |  |  |  |  | inhibition at 0.1 µM ([1]; read-out: Percentage inhibition of ligand binding, Adrenergic α2A (0.1 μM), compound at 0.1 μM, [3H]MK-912, repeat datapoints each shown): 74%; inhibition at 0.03 µM ([2]; read-out: Percentage inhibition of ligand binding, Adrenergic α2B (0.03 μM), compound at 0.03 μM, [3H]Rauwolscine, repeat datapoints each shown): 4%; inhibition at 0.1 µM ([3]; read-out: Percentage inhibition of ligand binding, Adrenergic α1B (0.1 μM), compound at 0.1 μM, [3H]Prazosin, repeat datapoints each shown): 6%
15 | CN1CCc2c(c3cccc(Cl)c3n2CC(O)c2ccncc2)C1 (single isomer, unassigned) [45a] | −4 | 54 |  |  |  |  | inhibition at 0.1 µM [3, 9]: 23%
